# Laboratory results reported in patent publication US20250332173A1, “COMPOUNDS AND METHODS FOR MODULATING NUCLEIC ACID SPLICING” (REMIX THERAPEUTICS INC., priority 2021, published 2025).
# Counter-ions that a name gives are not always drawn. Like-named read-outs stand apart in the source and are kept apart here.
# Legend:
# Type in all cases: cell-based, human
# HTT mRNA = assay: RT-qPCR splicing assay, HTT canonical junction (CJ) and alternative junction (AJ) mRNA; conditions: Homo sapiens; for AC50: increase in HTT alternative junction (AJ) mRNA, read-out: HTT AJ AC50
# Method in brief: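 A673 or K562 cells were treated for 24 h at 37 °C with an 11-point 3-fold compound dilution series (top final concentration 10 uM, DMSO ≤0.25%). After lysis, one-step TaqMan RT-qPCR quantified junction transcripts, normalized to PPIA for A673 or to GAPDH/GUSB for K562.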
# MYB = assay: HiBiT protein abundance assay, MYB HiBiT K562 cell line; conditions: HiBiT K562 cell line, 24 hours, top dose 10 μM; read-out: Effect on protein abundance, MYB (IC50 category)
# Method in brief: (§1)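 Endogenous targets in K562 knock-in lines carried a HiBiT tag and were treated for 24 h at 37 °C with 10-point 3-fold dilutions (top 10 μM final, DMSO ≤0.25%). Abundance was read as lytic Nano-Glo HiBiT luminescence. IC50 came from a four-parameter logistic fit of normalized response.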
# HTT = assay: HiBiT protein abundance assay, HTT HiBiT K562 cell line; conditions: HiBiT K562 cell line, 24 hours, top dose 10 μM; read-out: Effect on protein abundance, HTT (IC50 category)
# Method in brief: as §1
# [1] = decrease in HTT canonical junction (CJ) mRNA, RT-qPCR, read-out: HTT CJ IC50
# [2] = Table 5 panel, canonical junction qPCR, compound concentration having 50% response in CJ decrease, read-out: HTT IC50 (decrease in CJ mRNA levels)
SMILES,IC50 (HTT mRNA; [1]) [nM],AC50 (HTT mRNA; RT-qPCR) [nM],IC50 (HTT mRNA; [2]) [nM],IC50 (MYB) [nM],IC50 (HTT) [nM]
Cc1cc(-c2ccc3c(=O)n(N4CCN(C)CC4)cnc3c2)cc2cn(C)nc12 [Compound 175],1000 to 10000,> 10000,1000 to 10000,1000 to 10000,1000 to 10000
Cc1cn2nc(-c3ccc4c(=O)n(C5CCN(C)CC5)cnc4c3)cc(C)c2n1 [Compound 176],1000 to 10000,1000 to 10000,1000 to 10000,100 to 1000,1000 to 10000
CN1CCC(c2ccc3c(=O)n(-c4ccc5nn(C)cc5c4)cnc3c2)CC1 [Compound 177],> 10000,> 10000,> 10000,> 10000,> 10000
CN1CCN(c2ccc3c(=O)n(-c4ccc5cn(C)nc5c4)cnc3c2)CC1 [Compound 178],> 10000,> 10000,> 10000,> 10000,> 10000
Cc1cc(-c2ccc3c(=O)n(C4CC(C)(C)NC(C)(C)C4)cnc3n2)cc2cn(C)nc12 [Compound 179],> 10000,> 10000,> 10000,> 10000,> 10000
CN(c1ccc2c(=O)n(-c3ccc4nn(C)cc4c3)cnc2c1)C1CCNCC1 [Compound 180],> 10000,> 10000,> 10000,> 10000,> 10000
Cc1cn2nc(-c3ccc4c(=O)n(C5CCNCC5)cnc4c3)cc(C)c2n1 [Compound 181],100 to 1000,100 to 1000,100 to 1000,< 100,< 100
Cc1cc(-c2ccc3c(=O)n(C4CCNC5(CC5)C4)ncc3c2)cc2cn(C)nc12 (centres unmarked) [Compound 512],1000 to 10000,100 to 1000,100 to 1000,1000 to 10000,1000 to 10000
Cc1nc2c(C)cc(-c3ccc4c(=O)n(C5CCNC6(CC6)C5)ncc4c3)cc2o1 (centres unmarked) [Compound 513],100 to 1000,100 to 1000,100 to 1000,1000 to 10000,100 to 1000
"COc1cc(-c2ccc3c(=O)n(C4CCNCC4)ccc3c2)nn2cc(C)nc12 [Compound 514, 6-(8-methoxy-2-methyl-imidazo[1,2-b]pyridazin-6-yl)-2-(4-piperidyl) isoquinolin-1-one; hydrochloride]",< 100,< 100,< 100,< 100,< 100
Cc1cn2nc(-c3ccc4c(=O)n(C5CCN(CCF)CC5)ncc4c3)cc(C)c2n1 [Compound 515],100 to 1000,100 to 1000,100 to 1000,1000 to 10000,100 to 1000
"Cc1cn2nc(-c3ccc4c(=O)n(C5CCNCC5)ccc4c3)cc(C(=O)O)c2n1 [Compound 516, 2-methyl-6-[1-oxo-2-(4-piperidyl)-6-isoquinolyl]imidazo[1,2-b]pyridazine-8-carboxylic acid]",1000 to 10000,1000 to 10000,1000 to 10000,1000 to 10000,1000 to 10000
"COC(=O)c1cc(-c2ccc3c(=O)n(C4CCNCC4)ccc3c2)nn2cc(C)nc12 [Compound 517, methyl 2-methyl-6-[1-oxo-2-(4-piperidyl)-6-isoquinolyl]imidazo[1,2-b]pyridazine-8-carboxylate]",1000 to 10000,1000 to 10000,1000 to 10000,100 to 1000,1000 to 10000
"CNC(=O)c1cc(-c2ccc3c(=O)n(C4CCNCC4)ccc3c2)nn2cc(C)nc12 [Compound 518, N, 2-dimethyl-6-[1-oxo-2-(4-piperidyl)-6-isoquinolyl]imidazo[1,2-b]pyridazine-8-carboxamide]",> 10000,> 10000,> 10000,1000 to 10000,1000 to 10000
"Cc1cn2nc(-c3ccc4c(=O)n(C5CCNCC5)ccc4c3)cc(Oc3ccccc3)c2n1 [Compound 519, 6-(2-methyl-8-phenoxy-imidazo[1,2-b]pyridazin-6-yl)-2-(4-piperidyl)isoquinolin-1-one]",< 100,< 100,< 100,< 100,< 100
"Cc1cn2nc(-c3ccc4c(=O)n(C5CCNCC5)ccc4c3)cc(CC#N)c2n1 [Compound 520, 2-[2-methyl-6-[1-oxo-2-(4-piperidyl)-6-isoquinolyl]imidazo[1,2-b]pyridazin-8-yl]acetonitrile]",100 to 1000,100 to 1000,100 to 1000,100 to 1000,100 to 1000
Cn1ccc2c(cnn2-c2ccc3c(=O)n(C4CCNCC4)ccc3c2)c1=O [Compound 521],1000 to 10000,1000 to 10000,1000 to 10000,1000 to 10000,1000 to 10000
"Cn1ccc2nn(-c3ccc4c(=O)n(C5CCNCC5)ccc4c3)cc2c1=O [Compound 522, 6-{5-methyl-4-oxopyrazolo[4,3-c]pyridin-2-yl}-2-(piperidin-4-yl)isoquinolin-1-one]",> 10000,> 10000,> 10000,1000 to 10000,> 10000
"Cc1cn2nc(-c3ccc4c(=O)n(C5CCNCC5)ccc4c3)cc(C(N)=O)c2n1 [Compound 523, 2-methyl-6-[1-oxo-2-(4-piperidyl)-6-isoquinolyl]imidazo[1,2-b]pyridazine-8-carboxamide]",1000 to 10000,> 10000,> 10000,1000 to 10000,1000 to 10000
"Cc1cn2nc(-c3ccc4c(=O)n(C5CCNCC5)ccc4c3)cc(C(=O)N(C)C)c2n1 [Compound 524, N, N, 2-trimethyl-6-[1-oxo-2-(4-piperidyl)-6-isoquinolyl]imidazo[1,2-b]pyridazine-8-carboxamide]",> 10000,> 10000,> 10000,> 10000,> 10000
"Cc1cn2nc(-c3ccc4c(=O)n(C5CCNCC5)ccc4c3)cc(CO)c2n1 [Compound 525, 6-[8-(hydroxymethyl)-2-methyl-imidazo[1,2-b]pyridazin-6-yl]-2-(4-piperidyl) isoquinolin-1-one]",100 to 1000,< 100,< 100,< 100,< 100
"Cc1cn2nc(-c3ccc4c(=O)n(C5CCNCC5)ccc4c3)cc(OCc3ccccc3)c2n1 [Compound 526, 6-(8-benzyloxy-2-methyl-imidazo[1,2-b]pyridazin-6-yl)-2-(4-piperidyl) isoquinolin-1-one]",100 to 1000,100 to 1000,100 to 1000,< 100,100 to 1000
COC(=O)Cc1cc(-c2ccc3c(=O)n(C4CCNCC4)ccc3c2)nn2cc(C)nc12 [Compound 527],100 to 1000,100 to 1000,100 to 1000,100 to 1000,100 to 1000
"Cc1cn2nc(-c3ccc4c(=O)n(C5CCNCC5)ccc4c3)cc(CC(N)=O)c2n1 [Compound 528, 2-(2-methyl-6-(1-oxo-2-(piperidin-4-yl)-1,2-dihydroisoquinolin-6-yl)imidazo[1,2-b]pyridazin-8-yl) acetamide]",1000 to 10000,100 to 1000,100 to 1000,1000 to 10000,100 to 1000
"CCOC(=O)c1cc(-c2ccc3c(=O)n(C4CCNCC4)ccc3c2)nn2cc(C)nc12 [Compound 529, ethyl 2-methyl-6-[1-oxo-2-(4-piperidyl)-6-isoquinolyl]imidazo[1,2-b]pyridazine-8-carboxylate]",1000 to 10000,100 to 1000,100 to 1000,100 to 1000,100 to 1000
